This is an account of results in ChEMBL document CHEMBL5465560, “Selectivity Literature for EUbOPEN Chemogenomic Library” (2024).

Experiment [1] concerns the target Phosphatidylinositol 4,5-bisphosphate 3-kinase catalytic subunit gamma isoform (Homo sapiens) (UniProt P48736). As to the kind of experiment: Selectivity interaction (Panel of kinases, GPCRs, ion channels and transporters (enzymatic assay)) EUB0000266bCl PIK3CG.
In experiment [2] the target is G protein-coupled receptor kinase 4 (Homo sapiens) (UniProt P32298). To be noted: at 10 µM.
In experiment [3] the target is Tyrosine-protein kinase Fer (Homo sapiens) (UniProt P16591). The note with it: at 10 µM.
Experiment [4] concerns the target ALK tyrosine kinase receptor (Homo sapiens, UniProt Q9UM73). In words: Selectivity interaction (KinaseProfiler screening (Millipore)) EUB0000601a ALK. The note with it: at 3 µM.
The target of experiment [5] is T1, Serine/threonine-protein kinase TAO1 (Homo sapiens) (UniProt Q7L7X3).
T1 sequence (whole entry): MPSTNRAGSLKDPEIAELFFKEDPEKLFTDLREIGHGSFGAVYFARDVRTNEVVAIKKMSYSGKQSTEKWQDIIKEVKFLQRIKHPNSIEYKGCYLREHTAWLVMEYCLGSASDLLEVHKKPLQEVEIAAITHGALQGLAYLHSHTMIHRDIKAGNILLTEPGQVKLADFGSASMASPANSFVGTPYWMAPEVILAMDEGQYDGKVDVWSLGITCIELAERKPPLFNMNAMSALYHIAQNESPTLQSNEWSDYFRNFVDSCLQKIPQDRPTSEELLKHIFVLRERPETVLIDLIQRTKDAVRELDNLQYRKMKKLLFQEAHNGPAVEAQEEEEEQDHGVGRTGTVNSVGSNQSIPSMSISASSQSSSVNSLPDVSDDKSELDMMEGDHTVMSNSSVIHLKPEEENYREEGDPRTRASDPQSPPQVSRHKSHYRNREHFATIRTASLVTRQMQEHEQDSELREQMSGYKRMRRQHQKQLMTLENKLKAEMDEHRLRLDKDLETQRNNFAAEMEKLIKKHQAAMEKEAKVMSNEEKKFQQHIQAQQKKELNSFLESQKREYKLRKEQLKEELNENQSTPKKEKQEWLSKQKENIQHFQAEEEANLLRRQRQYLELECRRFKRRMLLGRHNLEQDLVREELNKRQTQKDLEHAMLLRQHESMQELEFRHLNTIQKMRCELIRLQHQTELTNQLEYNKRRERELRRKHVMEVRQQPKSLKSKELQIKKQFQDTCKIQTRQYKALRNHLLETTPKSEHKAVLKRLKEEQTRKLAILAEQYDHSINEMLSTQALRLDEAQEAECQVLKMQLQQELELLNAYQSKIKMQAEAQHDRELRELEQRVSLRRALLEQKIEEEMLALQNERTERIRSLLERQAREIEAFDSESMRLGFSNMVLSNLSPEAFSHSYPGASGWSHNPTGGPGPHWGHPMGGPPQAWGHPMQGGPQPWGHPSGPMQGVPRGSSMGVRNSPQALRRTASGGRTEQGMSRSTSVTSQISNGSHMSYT
As to the kind of experiment: Selectivity interaction (KinomeScan (DiscoverX)) EUB0001079a TAOK1. The note with it: at 1 µM.

The subject of experiment [6] is Tyrosine-protein kinase ABL1 (Homo sapiens), P00519 [F317I]. In words: Selectivity interaction (KinomeScan (DiscoverX)) EUB0000655a ABL1. To be noted: at 10 µM.
Experiment [7] addresses Phosphatidylinositol 4-phosphate 5-kinase type-1 alpha (Homo sapiens) (UniProt Q99755). In words: Selectivity interaction (KinomeScan (DiscoverX)) EUB0000695a PIP5K1A. The note with it: at 100 nM.
Experiment [8] addresses TRAF2 and NCK-interacting protein kinase (Homo sapiens) (UniProt Q9UKE5). In words: Selectivity interaction (KinomeScan (DiscoverX)) EUB0000695a TNIK. To be noted: at 100 nM.
In experiment [9] the target is Glycogen synthase kinase-3 alpha (Homo sapiens, UniProt P49840). As to the kind of experiment: Selectivity interaction (KinomeScan (DiscoverX)) EUB0000666a GSK3A. The note with it: at 10 µM.
For experiment [10], the target named is Histone-lysine N-methyltransferase 2C (Homo sapiens) (UniProt Q8NEZ4). In words: Selectivity interaction (Methyltransferase screen (radiometric assays, panel of 8 PRMTs, 21 protein lysine methyltransferases, 3 DNA methyltransferases, and one RNA methyltransferase)) EUB0000272b MLL3.
Chain of Histone-lysine N-methyltransferase 2C (Homo sapiens) (Q8NEZ4 whole entry): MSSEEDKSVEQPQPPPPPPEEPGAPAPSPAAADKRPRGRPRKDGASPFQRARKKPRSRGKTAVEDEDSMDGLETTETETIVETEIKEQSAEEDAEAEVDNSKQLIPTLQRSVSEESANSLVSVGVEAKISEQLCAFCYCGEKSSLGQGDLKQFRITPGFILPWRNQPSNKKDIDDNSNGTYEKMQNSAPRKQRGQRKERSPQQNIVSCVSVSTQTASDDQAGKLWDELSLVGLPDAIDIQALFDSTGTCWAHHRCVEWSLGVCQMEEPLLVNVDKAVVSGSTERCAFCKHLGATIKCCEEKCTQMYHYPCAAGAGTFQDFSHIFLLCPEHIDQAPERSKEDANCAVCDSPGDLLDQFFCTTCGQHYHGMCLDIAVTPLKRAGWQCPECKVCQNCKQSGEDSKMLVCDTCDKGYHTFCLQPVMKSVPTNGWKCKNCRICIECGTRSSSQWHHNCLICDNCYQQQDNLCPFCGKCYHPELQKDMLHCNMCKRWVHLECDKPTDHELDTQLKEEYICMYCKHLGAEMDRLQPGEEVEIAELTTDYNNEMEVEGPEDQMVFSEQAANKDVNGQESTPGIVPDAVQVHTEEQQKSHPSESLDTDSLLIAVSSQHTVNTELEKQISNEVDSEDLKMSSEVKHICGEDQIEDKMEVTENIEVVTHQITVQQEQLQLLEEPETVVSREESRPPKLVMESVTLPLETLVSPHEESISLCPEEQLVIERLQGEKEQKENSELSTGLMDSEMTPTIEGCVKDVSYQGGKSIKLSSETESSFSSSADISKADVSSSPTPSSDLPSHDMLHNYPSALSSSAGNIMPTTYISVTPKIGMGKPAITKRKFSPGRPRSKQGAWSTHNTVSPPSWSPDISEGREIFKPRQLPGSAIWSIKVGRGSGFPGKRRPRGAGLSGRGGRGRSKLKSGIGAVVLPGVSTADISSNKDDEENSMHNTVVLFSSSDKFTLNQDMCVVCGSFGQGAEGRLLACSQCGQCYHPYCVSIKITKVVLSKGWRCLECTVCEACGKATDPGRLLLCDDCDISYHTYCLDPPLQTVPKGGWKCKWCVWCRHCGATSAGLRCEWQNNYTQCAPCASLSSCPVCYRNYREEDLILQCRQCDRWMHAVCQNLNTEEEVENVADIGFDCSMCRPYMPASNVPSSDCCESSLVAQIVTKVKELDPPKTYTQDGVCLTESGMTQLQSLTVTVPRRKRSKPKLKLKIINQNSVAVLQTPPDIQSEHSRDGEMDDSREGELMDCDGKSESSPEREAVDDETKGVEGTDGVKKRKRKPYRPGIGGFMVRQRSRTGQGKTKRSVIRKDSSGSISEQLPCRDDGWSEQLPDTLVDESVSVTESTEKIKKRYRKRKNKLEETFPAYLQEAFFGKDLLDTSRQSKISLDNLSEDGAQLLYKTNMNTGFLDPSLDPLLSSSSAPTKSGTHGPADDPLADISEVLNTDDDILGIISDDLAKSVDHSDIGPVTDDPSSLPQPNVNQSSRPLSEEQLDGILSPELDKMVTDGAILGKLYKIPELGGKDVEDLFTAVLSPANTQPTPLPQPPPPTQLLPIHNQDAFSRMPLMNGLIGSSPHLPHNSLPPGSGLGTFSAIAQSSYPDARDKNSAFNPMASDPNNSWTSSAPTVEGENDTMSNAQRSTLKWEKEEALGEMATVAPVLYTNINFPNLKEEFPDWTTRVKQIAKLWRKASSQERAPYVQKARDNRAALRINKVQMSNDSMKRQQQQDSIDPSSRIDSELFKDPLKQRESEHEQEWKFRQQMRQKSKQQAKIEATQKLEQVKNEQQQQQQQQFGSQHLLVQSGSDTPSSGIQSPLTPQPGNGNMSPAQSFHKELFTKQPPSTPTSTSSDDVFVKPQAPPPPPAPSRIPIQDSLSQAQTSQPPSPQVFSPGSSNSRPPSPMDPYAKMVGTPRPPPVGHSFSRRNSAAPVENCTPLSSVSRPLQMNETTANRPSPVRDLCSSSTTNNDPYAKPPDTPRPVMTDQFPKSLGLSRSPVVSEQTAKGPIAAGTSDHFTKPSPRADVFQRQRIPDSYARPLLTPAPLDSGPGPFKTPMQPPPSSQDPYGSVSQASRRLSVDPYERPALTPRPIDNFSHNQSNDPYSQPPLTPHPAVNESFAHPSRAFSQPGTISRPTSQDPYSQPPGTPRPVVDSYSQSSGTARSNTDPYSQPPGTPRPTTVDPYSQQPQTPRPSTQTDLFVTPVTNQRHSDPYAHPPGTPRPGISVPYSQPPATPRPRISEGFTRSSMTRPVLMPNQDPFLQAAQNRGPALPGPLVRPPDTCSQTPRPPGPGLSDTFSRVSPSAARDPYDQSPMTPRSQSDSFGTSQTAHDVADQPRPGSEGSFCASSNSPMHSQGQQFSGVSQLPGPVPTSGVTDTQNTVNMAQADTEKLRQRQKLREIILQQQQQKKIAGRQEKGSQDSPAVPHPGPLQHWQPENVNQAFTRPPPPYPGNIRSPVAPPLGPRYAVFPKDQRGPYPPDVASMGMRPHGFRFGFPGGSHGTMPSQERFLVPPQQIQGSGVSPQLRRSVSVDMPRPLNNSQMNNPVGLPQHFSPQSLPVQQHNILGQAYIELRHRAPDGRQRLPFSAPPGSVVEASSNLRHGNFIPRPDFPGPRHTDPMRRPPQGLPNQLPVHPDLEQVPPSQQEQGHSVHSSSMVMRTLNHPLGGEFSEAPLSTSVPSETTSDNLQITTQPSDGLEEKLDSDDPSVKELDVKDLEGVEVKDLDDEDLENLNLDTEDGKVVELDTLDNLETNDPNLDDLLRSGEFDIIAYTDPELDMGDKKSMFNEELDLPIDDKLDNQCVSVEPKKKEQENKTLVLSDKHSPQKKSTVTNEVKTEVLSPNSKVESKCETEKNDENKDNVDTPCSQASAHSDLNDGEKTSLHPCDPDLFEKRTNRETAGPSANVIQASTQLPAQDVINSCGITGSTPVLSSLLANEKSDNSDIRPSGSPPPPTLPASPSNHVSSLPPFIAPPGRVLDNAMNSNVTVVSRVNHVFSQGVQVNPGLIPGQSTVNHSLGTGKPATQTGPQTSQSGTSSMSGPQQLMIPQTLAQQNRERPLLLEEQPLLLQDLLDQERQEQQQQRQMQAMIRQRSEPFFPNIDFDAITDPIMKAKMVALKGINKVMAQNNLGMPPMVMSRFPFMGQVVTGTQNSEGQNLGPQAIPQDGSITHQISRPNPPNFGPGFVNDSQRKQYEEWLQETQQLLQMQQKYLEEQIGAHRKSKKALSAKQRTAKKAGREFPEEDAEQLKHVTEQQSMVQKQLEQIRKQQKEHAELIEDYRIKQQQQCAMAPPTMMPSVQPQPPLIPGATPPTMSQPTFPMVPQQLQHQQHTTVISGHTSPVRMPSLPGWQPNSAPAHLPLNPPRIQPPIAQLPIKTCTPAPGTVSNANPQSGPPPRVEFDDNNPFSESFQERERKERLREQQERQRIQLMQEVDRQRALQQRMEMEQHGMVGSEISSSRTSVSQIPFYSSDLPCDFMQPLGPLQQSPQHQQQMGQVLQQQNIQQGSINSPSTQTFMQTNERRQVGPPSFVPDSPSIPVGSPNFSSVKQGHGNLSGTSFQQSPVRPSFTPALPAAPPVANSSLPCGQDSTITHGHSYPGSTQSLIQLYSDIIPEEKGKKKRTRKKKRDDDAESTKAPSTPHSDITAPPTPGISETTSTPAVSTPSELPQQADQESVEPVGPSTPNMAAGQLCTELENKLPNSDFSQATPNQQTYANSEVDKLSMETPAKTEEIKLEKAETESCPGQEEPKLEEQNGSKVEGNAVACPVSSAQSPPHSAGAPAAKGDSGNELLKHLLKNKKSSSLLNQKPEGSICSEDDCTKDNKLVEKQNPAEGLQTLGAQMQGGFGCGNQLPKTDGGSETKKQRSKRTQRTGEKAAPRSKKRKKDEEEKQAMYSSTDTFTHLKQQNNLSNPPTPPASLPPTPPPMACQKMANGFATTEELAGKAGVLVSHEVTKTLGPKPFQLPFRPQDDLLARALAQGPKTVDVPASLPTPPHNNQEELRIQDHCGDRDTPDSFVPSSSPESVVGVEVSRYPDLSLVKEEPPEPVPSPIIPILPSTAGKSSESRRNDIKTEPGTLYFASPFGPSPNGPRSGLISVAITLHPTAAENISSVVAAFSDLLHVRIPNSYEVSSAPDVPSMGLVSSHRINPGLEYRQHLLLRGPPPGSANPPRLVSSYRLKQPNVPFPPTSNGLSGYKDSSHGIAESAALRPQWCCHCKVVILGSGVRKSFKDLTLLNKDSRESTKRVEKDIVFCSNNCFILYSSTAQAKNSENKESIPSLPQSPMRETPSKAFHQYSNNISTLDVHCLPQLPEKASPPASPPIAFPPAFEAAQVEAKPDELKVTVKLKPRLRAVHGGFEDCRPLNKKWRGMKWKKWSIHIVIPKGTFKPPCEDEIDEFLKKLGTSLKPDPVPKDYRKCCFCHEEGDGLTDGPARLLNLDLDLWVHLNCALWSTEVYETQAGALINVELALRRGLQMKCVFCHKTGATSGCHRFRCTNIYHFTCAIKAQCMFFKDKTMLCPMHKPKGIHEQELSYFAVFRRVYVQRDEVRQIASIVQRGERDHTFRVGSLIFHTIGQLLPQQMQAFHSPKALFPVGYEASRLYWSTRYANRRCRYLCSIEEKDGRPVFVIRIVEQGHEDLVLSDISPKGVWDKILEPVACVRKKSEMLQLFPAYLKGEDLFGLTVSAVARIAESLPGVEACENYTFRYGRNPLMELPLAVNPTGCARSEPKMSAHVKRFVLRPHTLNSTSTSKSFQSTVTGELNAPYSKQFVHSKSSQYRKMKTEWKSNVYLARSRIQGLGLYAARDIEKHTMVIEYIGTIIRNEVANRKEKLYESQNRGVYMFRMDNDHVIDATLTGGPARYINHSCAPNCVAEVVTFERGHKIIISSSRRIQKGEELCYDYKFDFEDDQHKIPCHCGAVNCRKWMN
Experiment [11] addresses T2, Tyrosine-protein kinase JAK3 (Homo sapiens) (UniProt P52333).
T2 sequence (whole entry): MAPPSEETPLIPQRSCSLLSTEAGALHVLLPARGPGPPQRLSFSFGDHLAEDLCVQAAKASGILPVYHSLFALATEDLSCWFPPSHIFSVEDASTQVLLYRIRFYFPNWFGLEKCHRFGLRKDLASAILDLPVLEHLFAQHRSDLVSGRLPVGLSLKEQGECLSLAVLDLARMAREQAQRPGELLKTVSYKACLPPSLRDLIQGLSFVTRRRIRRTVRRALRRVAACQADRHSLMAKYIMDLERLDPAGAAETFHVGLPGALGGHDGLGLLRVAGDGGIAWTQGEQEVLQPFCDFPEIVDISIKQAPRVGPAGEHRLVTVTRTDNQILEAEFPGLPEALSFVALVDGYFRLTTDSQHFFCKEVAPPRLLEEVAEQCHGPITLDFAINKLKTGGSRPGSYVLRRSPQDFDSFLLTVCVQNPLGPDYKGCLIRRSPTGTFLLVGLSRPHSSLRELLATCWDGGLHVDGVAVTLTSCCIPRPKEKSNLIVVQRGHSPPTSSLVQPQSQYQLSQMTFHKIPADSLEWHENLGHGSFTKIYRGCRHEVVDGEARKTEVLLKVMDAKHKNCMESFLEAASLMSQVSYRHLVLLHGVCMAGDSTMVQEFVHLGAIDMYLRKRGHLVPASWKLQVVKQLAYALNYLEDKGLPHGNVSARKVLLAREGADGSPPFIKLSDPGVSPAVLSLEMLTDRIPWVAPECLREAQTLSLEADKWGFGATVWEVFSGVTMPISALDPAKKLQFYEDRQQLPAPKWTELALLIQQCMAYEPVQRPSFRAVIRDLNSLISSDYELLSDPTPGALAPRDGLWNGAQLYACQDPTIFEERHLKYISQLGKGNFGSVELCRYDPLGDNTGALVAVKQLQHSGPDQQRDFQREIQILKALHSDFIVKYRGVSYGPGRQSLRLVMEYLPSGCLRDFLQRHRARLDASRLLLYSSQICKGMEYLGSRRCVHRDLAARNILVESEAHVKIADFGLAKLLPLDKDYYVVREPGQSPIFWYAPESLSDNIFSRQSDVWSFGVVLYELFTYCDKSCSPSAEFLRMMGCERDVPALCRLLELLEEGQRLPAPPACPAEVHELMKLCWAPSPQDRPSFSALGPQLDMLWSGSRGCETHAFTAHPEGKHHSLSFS
As to the kind of experiment: Selectivity interaction (KinomeScan (DiscoverX)) EUB0000607a JAK3. To be noted: at 10 µM.

In experiment [12] the target is Glycogen synthase kinase-3 beta (Homo sapiens, UniProt P49841). In words: Selectivity interaction (ActivX KiNativ screen (ex vivo kinase selectivity in human PBMCs)) EUB0001619a GSK3B. It counts as cell-based. The note with it: PBMC, at 1 µM.

Structures are written as SMILES.

In experiment [1], `CCn1c(-c2nc3cc(C(=O)N4CCCC(N)C4)ccc3n2C)cc2ccccc21` (stereo not drawn) showed a pXC50 of less than 4.5 M.
Take `Cc1cc([C@@H](C)Nc2ccccc2C(=O)O)c2nc(N3CCOCC3)cc(=O)n2c1` [AZD-6482]: the % of control came out at 90% in experiment [2] and 100% in [3].
Compound `CCc1cc(Nc2nccc(-c3c(-c4ccc(OC)c(C(=O)Nc5c(F)cccc5F)c4)nc4ccccn34)n2)c(OC)cc1N1CCC(N2CCN(S(C)(=O)=O)CC2)CC1` returned a % of inhibition in [4] of 39%.
In experiment [5], `Nc1cnc(N2CCc3cc(S(=O)(=O)Nc4c(F)cc(Cl)cc4F)cc(N4CCCC4=O)c32)nc1` [TP-020n] displayed a % of control of 80%.
Regarding `CN(C)CCOc1ccc(-c2nc(-c3ccncc3)c(-c3ccc4c(c3)CC/C4=N\O)[nH]2)cc1`, the % of control in experiment [6] worked out at 81%.
`Cc1cc(F)c(C(=O)Nc2cccc(-c3nncn3C(C)C)n2)cc1-n1cnc(C2CC2)c1`: the % of control in [7] and in experiment [8] was 78% throughout.
`O=C(NOC[C@H](O)CO)c1ccc(F)c(F)c1Nc1ccc(I)cc1F`: in [9], the % of control is 90%.
As for `Cc1cc(C)cc([C@H]2c3cc(C)ccc3NC(=O)CN2C(=O)c2ccc(Br)s2)c1`, the % of activity was found to be 101% in [10] (at 1 µM) and 92% in experiment [10] (at 10 µM).
In experiment [11], `CNC(=O)Nc1ccc(-c2nc(N3CC4CCC(C3)O4)c3cnn(C4CCC5(CC4)OCCO5)c3n2)cc1` yielded a % of control of 90%.
For `N#Cc1cccc(-c2c[nH]c3ncnc(N4CCOCC4)c23)c1`, in experiment [12], the % of inhibition worked out at 7%.
